Experimental data published in patent publication US6326139A (priority 1997, dated 2001).

Experiments:
[1] = in vivo; cited from earlier work
BuChE L^286 K = BuChE L^286 K (Homo sapiens, UniProt P06276, L314K); test: Reactivation by PAM of DFP-inhibited enzyme; assay type: biochemical
Description: (§1) and 1 μM DFP. The pseudo-first order rate constant for reactivation, […]

[2] = tested on: Chimera of human AChE and BuChE; test: Reactivation by PAM of DFP-inhibited enzyme; assay type: biochemical
Description: as §1

DIP-BuChE = target: T1, DIP-BuChE (Homo sapiens, UniProt P06276); test: Reactivation by PAM of DFP-inhibited enzyme; assay type: biochemical
T1 construct: made in house; host or cells: Xenopus oocytes (microinjected in vitro transcribed mRNA)
Description: as §1

AChE (E5) = AChE (E5) (Homo sapiens, UniProt P22303)
Description: (§2) Single-step enrichment for AChE or BuChE on immobilized antibody: Monoclonal mouse anti-human serum BuChE (53-4) or anti-human ACHE (101-1) antibodies (Liao et al., 1993), were adsorbed to microliter plates (Nunc, Roskilde, Denmark) at […] in 0.1 M carbonate buffer, pH 9.6, for at least four hours at room temperature. Plates were then washed three times in PBS-T buffer (144 mM NaCl, 20 mM Na phosphate, pH 7.4, 0.05% Tween-20). Free binding sites on the well surface of the microliter plate were blocked with PBS-T for one hour at 37° C. […] Microinjected oocyte homogenates containing the enzyme were then added at a dilution of 1:20 in PBS-T or at a concentration of 100 mIU/ml in PBS-T for at least 3 hours at room temperature with agitation. Plates were washed three times with PBS-T before use. Inactivation was performed at pH 7.4 in order to facilitate comparison with similar studies in the literature.
(§3) and 1 μM DFP. The pseudo-first order rate constant for reactivation,
(§4) ^a True first order rate constants for reactivation (kr) and […]

AChE (E6) = AChE (E6) (Homo sapiens, UniProt P22303)
Description: as §2, §3, §4

BuChE D^70 G + S^425 P = test: Reactivation by PAM of DFP-inhibited enzyme; assay type: biochemical, human; conditions: 1 mM PAM; pseudo-first order
Description: as §1

[3] = tested on: BuChE D^70 G + Y^114 H + S^425 P; test: Reactivation by PAM of DFP-inhibited enzyme; assay type: biochemical, human
Description: as §1

BuChE D^70 G + Y^114 H = test: Reactivation by PAM of DFP-inhibited enzyme; assay type: biochemical, human; conditions: 1 mM PAM; pseudo-first order
Description: as §1

BuChE D^70 G = test: Reactivation by PAM of DFP-inhibited enzyme; assay type: biochemical, human
Description: as §1

BuChE F^329 C = test: Reactivation by PAM of DFP-inhibited enzyme; assay type: biochemical, human; conditions: 1 mM PAM; pseudo-first order
Description: as §1

BuChE F^329 D = test: Reactivation by PAM of DFP-inhibited enzyme; assay type: biochemical, human; conditions: 1 mM PAM; pseudo-first order
Description: as §1

BuChE F^329 Q = test: Reactivation by PAM of DFP-inhibited enzyme; assay type: biochemical, human; conditions: 1 mM PAM; pseudo-first order
Description: as §1

BuChE F^329 R = test: Reactivation by PAM of DFP-inhibited enzyme; assay type: biochemical, human; conditions: 1 mM PAM; pseudo-first order
Description: as §1

BuChE L^286 D = test: Reactivation by PAM of DFP-inhibited enzyme; assay type: biochemical, human; conditions: 1 mM PAM; pseudo-first order
Description: as §1

BuChE L^286 Q = test: Reactivation by PAM of DFP-inhibited enzyme; assay type: biochemical, human; conditions: 1 mM PAM; pseudo-first order
Description: as §1

BuChE L^286 R = test: Reactivation by PAM of DFP-inhibited enzyme; assay type: biochemical, human; conditions: 1 mM PAM; pseudo-first order
Description: as §1

BuChE S^425 P = test: Reactivation by PAM of DFP-inhibited enzyme; assay type: biochemical, human; conditions: 1 mM PAM; pseudo-first order
Description: as §1

[4] = tested on: D^70 G BuChE in tandem with one or two additional natural mutations; test: Reactivation by 2-PAM of DFP-inactivated enzyme; assay type: biochemical, human
Description: Single-step enrichment for AChE or BuChE on immobilized antibody: Monoclonal mouse anti-human serum BuChE (53-4) or anti-human ACHE (101-1) antibodies (Liao et al., 1993), were adsorbed to microliter plates (Nunc, Roskilde, Denmark) at 0.5 pg/ml in 0.1 M carbonate buffer, pH 9.6, for at least four hours at room temperature. Plates were then washed three times in PBS-T buffer (144 mM NaCl, 20 mM Na phosphate, pH 7.4, 0.05% Tween-20). Free binding sites on the well surface of the microliter plate were blocked with PBS-T for one hour at 37° C. […] Microinjected oocyte homogenates containing the enzyme were then added at a dilution of 1:20 in PBS-T or at a concentration of 100 mIU/ml in PBS-T for at least 3 hours at room temperature with agitation. Plates were washed three times with PBS-T before use. Inactivation was performed at pH 7.4 in order to facilitate comparison with similar studies in the literature.

[5] = true first order, 0.1 to 0.6 mM PAM

T1 sequence (P06276 29-602): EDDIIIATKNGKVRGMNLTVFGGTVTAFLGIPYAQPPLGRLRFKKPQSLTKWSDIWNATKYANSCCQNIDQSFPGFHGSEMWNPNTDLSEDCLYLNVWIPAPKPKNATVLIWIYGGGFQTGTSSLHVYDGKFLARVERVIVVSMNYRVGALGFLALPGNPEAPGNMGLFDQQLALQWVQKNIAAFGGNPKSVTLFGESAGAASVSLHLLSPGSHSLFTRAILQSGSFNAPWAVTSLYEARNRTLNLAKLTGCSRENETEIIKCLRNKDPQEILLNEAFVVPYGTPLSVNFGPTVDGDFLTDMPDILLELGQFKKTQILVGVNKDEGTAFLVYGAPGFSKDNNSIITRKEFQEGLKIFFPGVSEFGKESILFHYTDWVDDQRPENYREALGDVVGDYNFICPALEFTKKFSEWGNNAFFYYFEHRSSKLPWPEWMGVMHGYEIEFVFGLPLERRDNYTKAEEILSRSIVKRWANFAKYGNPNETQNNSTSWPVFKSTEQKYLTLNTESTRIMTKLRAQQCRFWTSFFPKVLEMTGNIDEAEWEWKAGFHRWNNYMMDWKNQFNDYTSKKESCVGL
BuChE L^286 K, sequence (P06276 29-602 L314K limits assumed): as the sequence (P06276 29-602) above, with L286K counted along it
AChE (E5), sequence (P22303-4 with tags, fused parts or gaps limits assumed): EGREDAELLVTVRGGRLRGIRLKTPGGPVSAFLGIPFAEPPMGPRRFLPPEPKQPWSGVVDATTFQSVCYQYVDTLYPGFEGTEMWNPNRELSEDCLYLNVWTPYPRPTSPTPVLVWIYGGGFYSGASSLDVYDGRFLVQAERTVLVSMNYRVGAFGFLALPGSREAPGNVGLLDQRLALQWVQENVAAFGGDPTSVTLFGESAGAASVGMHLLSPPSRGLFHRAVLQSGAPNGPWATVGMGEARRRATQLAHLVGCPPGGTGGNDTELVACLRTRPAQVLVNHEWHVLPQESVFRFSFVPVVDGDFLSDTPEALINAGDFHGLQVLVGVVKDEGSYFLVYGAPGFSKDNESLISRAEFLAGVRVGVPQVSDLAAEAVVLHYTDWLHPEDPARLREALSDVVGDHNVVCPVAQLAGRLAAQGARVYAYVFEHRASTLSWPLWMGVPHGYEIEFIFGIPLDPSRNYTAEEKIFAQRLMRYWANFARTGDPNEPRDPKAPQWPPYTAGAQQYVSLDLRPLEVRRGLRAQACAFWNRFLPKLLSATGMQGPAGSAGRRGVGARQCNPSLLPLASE
AChE (E6), sequence (P22303 32-614): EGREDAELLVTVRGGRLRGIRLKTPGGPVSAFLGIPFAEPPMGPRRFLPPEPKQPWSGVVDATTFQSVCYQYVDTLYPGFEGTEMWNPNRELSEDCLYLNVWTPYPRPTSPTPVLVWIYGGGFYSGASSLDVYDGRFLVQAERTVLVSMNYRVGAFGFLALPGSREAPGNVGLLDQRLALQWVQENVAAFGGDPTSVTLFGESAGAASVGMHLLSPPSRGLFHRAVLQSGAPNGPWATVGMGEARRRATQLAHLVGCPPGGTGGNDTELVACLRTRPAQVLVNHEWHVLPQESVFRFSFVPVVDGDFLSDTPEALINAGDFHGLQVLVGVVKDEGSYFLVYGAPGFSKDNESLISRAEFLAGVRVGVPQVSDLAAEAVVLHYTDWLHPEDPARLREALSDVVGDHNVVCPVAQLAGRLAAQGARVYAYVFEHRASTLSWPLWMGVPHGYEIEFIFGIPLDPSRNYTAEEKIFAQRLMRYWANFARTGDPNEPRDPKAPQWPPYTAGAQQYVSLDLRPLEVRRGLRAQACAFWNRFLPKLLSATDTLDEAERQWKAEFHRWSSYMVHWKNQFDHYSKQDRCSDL

SMILES: CCN(CC)C(=O)c1cccc(C)c1 [DEET]
- toxicity of anti-ChEs [1]: amplify the toxicity of anti-ChEs

SMILES: C[n+]1ccccc1C=NO [PAM, Pyridine-2-aldoxime methiodide]
- k'r × 10^3 (BuChE L^286 K; 1 mM PAM, pseudo-first order): 4 ± 1 min^-1
- reduction in the pseudo-first order rate constant for reactivation (BuChE L^286 K; L^286 K): 40 fold
- kr × 10^3 (BuChE L^286 K; [5]): 35 ± 27 min^-1
- k'r × 10^3 ([2]; 1 mM PAM, pseudo-first order): 40 ± 18 min^-1
- reactivation rate constant lower than native BuChE ([2]; chimera): 5 fold
- kr × 10^3 [2, 5]: 48 ± 20 min^-1
- k'r × 10^3 (DIP-BuChE; 1 mM PAM, pseudo-first order): 150 ± 30 min^-1
- pseudo-first order reactivation rate constant higher than for either form of AChE (DIP-BuChE; DFP-inhibited BuChE): 25 fold
- kr × 10^3 (DIP-BuChE; [5]): 220 ± 60 min^-1
- k'r × 10^3 (AChE (E5); 1 mM PAM, pseudo-first order): 8 ± 3 min^-1
- kr × 10^3 (AChE (E5); [5]): 10 ± 5 min^-1
- k'r × 10^3 (AChE (E6); 1 mM PAM, pseudo-first order): 6 ± 2 min^-1
- kr × 10^3 (AChE (E6); [5]): 7 ± 3 min^-1
- k'r × 10^3 (BuChE D^70 G + S^425 P): 11 min^-1
- k'r × 10^3 ([3]; 1 mM PAM, pseudo-first order): 4 ± 1 min^-1
- decrease in the rate of reactivation ([3]; all three mutations): 40 fold
- k'r × 10^3 (BuChE D^70 G + Y^114 H): 12 ± 5 min^-1
- k'r × 10^3 (BuChE D^70 G; 1 mM PAM, pseudo-first order): 32 ± 4 min^-1
- reactivation rate lower than wild-type (BuChE D^70 G; D^70 G, DFP-inactivated): 5 fold
- k'r × 10^3 (BuChE F^329 C): 14 ± 2 min^-1
- k'r × 10^3 (BuChE F^329 D): 8 ± 1 min^-1
- k'r × 10^3 (BuChE F^329 Q): 44 ± 15 min^-1
- k'r × 10^3 (BuChE F^329 R): 43 min^-1
- k'r × 10^3 (BuChE L^286 D): 120 ± 30 min^-1
- k'r × 10^3 (BuChE L^286 Q): 120 ± 20 min^-1
- k'r × 10^3 (BuChE L^286 R): 6 ± 3 min^-1
- k'r × 10^3 (BuChE S^425 P): 134 ± 8 min^-1
- rate of reactivation lower than wild type [4]: ≤ 40 fold
